What follows are substances tested on IgE antibodies from patients (assay: Epitope mapping (3): alanine scanning). Details: positions numbered within the region important for binding; no influence on IgE binding when substituted by alanine.
Parameters: species or system human
Method: From the amino acid sequences identified above in (A), a library of peptide fragments in which N-terminal amino acids were substituted one by one by alanine according to a technique called alanine scanning (Non Patent Literature 5) was prepared by the same technique as described above. The presence or absence of binding of an IgE antibody present in the serum of a patient and a non-fish-allergic subject to each peptide fragment was measured by the same technique as described above. Amino acids at positions where the binding activity against IgE antibodies from patients were lost or decreased by the substitution by alanine while binding activity against IgE antibodies from non-fish-allergic subjects arose were confirmed as amino acids important for exertion of original antigenicity, or amino acids influencing exertion of original antigenicity.
Chemiluminescence intensity in images obtained by measurement was converted into a numeric value in the same manner as in (A) using ImageQuant TL (GE Healthcare). When values obtained using the sequences (SEQ ID NOs: 150-204) that were of the peptides confirmed to bind to an IgE antibody in a patient specific manner from the images obtained from results about the serum of 5 patients and served as the basis of overlapping were defined as 100%, it was determined that: a peptide having a value of less than 20% had no binding activity against IgE antibodies; a peptide having a value of 20% or more and less than 50% had binding activity, albeit poor, against IgE antibodies; a peptide having a value of 50% or more and less than 70% had binding activity, albeit somewhat poor, against IgE antibodies; a peptide having a value of 70% or more and less than 90% had equivalent binding activity against IgE antibodies; and a peptide having a value of 90% or more had almost equivalent or good binding activity against IgE antibodies and was thus a peptide had remaining binding activity against IgE antibodies.
By this analysis, common sequences important for exertion of original antigenicity were found in regions important for binding to IgE antibodies from patients, in the sequences serving as the basis of overlapping.
With “3 (SCFYHAFAGAEQAET; epitope) [compound 3]” the “Non-binding-influencing amino acid in region important for binding” value (from here on “Non-binding-influencing amino acid”) was 2.
With “12 (EAEQYKAADDVQRDK; heat shock cognate 70 kDa protein epitope) [compound 12]” the “Non-binding-influencing amino acid” value was 2.
“13 (KLSDEDKQKILDKCN; epitope) [compound 13]” was tested, and the “Non-binding-influencing amino acid” value was 4.
With “18 (YYGYNGAFRCLVEDA; epitope) [compound 18]” the “Non-binding-influencing amino acid” value was 2.
With “19 (RYVKKVGEKINIVIP; epitope) [compound 19]” the “Non-binding-influencing amino acid” value was 3.
With “26 (VILIKKAGDGSKKIK; epitope) [compound 26]” the “Non-binding-influencing amino acid” value was 3-5.
In the case of “30 (TVTALDFREGKEFKD; epitope) [compound 30]”, the “Non-binding-influencing amino acid” value is reported as 2-4.
For “31 (YNSMEQLCINFTNEK; epitope) [compound 31]”, the “Non-binding-influencing amino acid” value was 2.
With “38 (LKATKKKKKPVVDEE; epitope) [compound 38]” the “Non-binding-influencing amino acid” value was 2.
With “44 (YTFIPDGYALSLSAK; epitope) [compound 44]” the “Non-binding-influencing amino acid” value was 2-4.
With “51 (DGDKSRYLGKGTVKA; epitope) [compound 51]” the “Non-binding-influencing amino acid” value was 7.
In the case of “52 (YRHIADLAGHKDVIL; epitope) [compound 52]”, the “Non-binding-influencing amino acid” value is reported as 2-4.
“53 (NLKNVIKAKYGKDAT; epitope) [compound 53]” was tested, and the “Non-binding-influencing amino acid” value was 3-6.
In the case of “SEQ ID NO: 207: region important for binding, amino acids at positions 1-10 of epitope 1 (SEQ ID NO: 150) (SGERLPKPDK; epitope)”, the “Non-binding-influencing amino acid” value is reported as 2-6.
With “SEQ ID NO: 210: region important for binding, amino acids at positions 9-14 of epitope 1 (SEQ ID NO: 150) (DKGKMR; epitope)” the “Non-binding-influencing amino acid” value was 3-5.

What follows are substances tested on IgE antibodies from patients (assay: Epitope mapping (2): overlapping 10-amino-acid peptide fragments shifted by one amino acid). Details: positions numbered within the 15-amino-acid epitope; serum of 5 patients.
Assay type: binding, human
Excerpt: On the basis of the sequences (SEQ ID NOs: 150-154 for alpha-actinin-3, SEQ ID NO: 155 for EEF1A2 binding protein-like, SEQ ID NOs: 156 and 157 for alpha-1,4-glucan phosphorylase, SEQ ID NOs: 158 and 159 for elongation factor 2, SEQ ID NOs: 160-162 for heat shock cognate 70 kDa protein, SEQ ID NOs: 163-167 for serotransferrin, SEQ ID NOs: 168-171 for myosin binding protein H-like, SEQ ID NOs: 172-174 for desmin (fragment), SEQ ID NOs: 175-178 for capping protein (actin filament) muscle Z-line beta, SEQ ID NOs: 179-185 for myosin heavy chain, fast skeletal muscle-like, SEQ ID NO: 186 for glycogen phosphorylase, muscle form-like, SEQ ID NOs: 187-196 for myosin-binding protein C, fast-type-like, SEQ ID NO: 197 for ATP synthase subunit beta, mitochondrial, SEQ ID NO: 198 for L-lactate dehydrogenase A chain-like, SEQ ID NO: 199 for aldolase, SEQ ID NOs: 200-202 for β-enolase, and SEQ ID NOs: 203 and 204 for glyceraldehyde-3-phosphate dehydrogenase) of the peptides bound to an IgE antibody in serum in a patient-specific manner as described above in (A), a library of overlapping peptide fragments (length: 10 amino acids) was prepared using the sequences of the peptides and sequences in which sequences were added so as to flank each peptide in the amino acid sequences of allergen components (SEQ ID NO: 2 for alpha-actinin-3, SEQ ID NO: 5 for EEF1A2 binding protein-like, SEQ ID NO: 10 for alpha-1,4-glucan phosphorylase, SEQ ID NO: 19 for elongation factor 2, SEQ ID NO: 26 for heat shock cognate 70 kDa protein, SEQ ID NO: 33 for serotransferrin, SEQ ID NO: 43 for myosin binding protein H-like, SEQ ID NO: 56 for desmin (fragment), SEQ ID NO: 61 for capping protein (actin filament) muscle Z-line beta, SEQ ID NO: 70 for myosin heavy chain, fast skeletal muscle-like, SEQ ID NO: 110 for glycogen phosphorylase, muscle form-like, SEQ ID NO: 121 for myosin-binding protein C, fast-type-like, SEQ ID NO: 138 for ATP synthase subunit beta, mitochondrial, SEQ ID NO: 144 for L-lactate dehydrogenase A chain-like, SEQ ID NO: 445 for aldolase, SEQ ID NO: 446 for β-enolase, and SEQ ID NO: 447 for glyceraldehyde-3-phosphate dehydrogenase) comprising the sequences of the peptide. Epitope mapping was carried out using the library.
The peptides to be synthesized were shifted by one amino acid.
The library was prepared by the same procedure as described above in (A), and the presence or absence of binding of an IgE antibody present in the serum of a patient and a non-fish-allergic subject to each peptide fragment was measured by the same technique as described above. Amino acids at positions where the binding activity against IgE antibodies from patients were lost or decreased in the peptides shifted by one amino acid while binding activity against IgE antibodies from non-fish-allergic subjects arose were confirmed as amino acids adversely affecting the specificity of binding to IgE antibodies.
Chemiluminescence intensity in images obtained by measurement was converted into a numeric value in the same manner as in (A) using ImageQuant TL (GE Healthcare). […]
For “3 (SCFYHAFAGAEQAET; epitope) [compound 3]”, the “Positions of amino acids of region important for binding in epitope” value (shortened to “Positions”) was 1-15.
“4 (TKLRLSNRPAFMPSE; epitope) [compound 4]” was tested, and the “Positions” value was 1-15.
In the case of “15 (YSGAFQCLKDGAGEV; epitope) [compound 15]”, the “Positions” value is reported as 8-15.
For “21 (KEVIDYKPTPFVEHD; epitope) [compound 21]”, the “Positions” value was 2-15.
With “25 (DVGRSAEVHSKKTVL; epitope) [compound 25]” the “Positions” value was 1-7.
With “27 (IHVVEVQEKSSGRTA; epitope) [compound 27]” the “Positions” value was 2-12.
In the case of “29 (DNQKYRQLQKELSQV; epitope) [compound 29]”, the “Positions” value is reported as 3-14.
“31 (YNSMEQLCINFTNEK; epitope) [compound 31]” was tested, and the “Positions” value was 7-15.
In the case of “32 (LYPPPPPEDKAKKGG; epitope) [compound 32]”, the “Positions” value is reported as 1-10.
In the case of “34 (EEDKVNTLTKAKTKL; epitope) [compound 34]”, the “Positions” value is reported as 5-14.
For “40 (TDLRGLLKRLKKMKT; epitope) [compound 40]”, the “Positions” value was 2-8.
In the case of “45 (GAPVTGYLMERKKKG; epitope) [compound 45]”, the “Positions” value is reported as 3-7.
With “46 (RQKYIRRVGDKINLT; epitope) [compound 46]” the “Positions” value was 2-13.
With “51 (DGDKSRYLGKGTVKA; epitope) [compound 51]” the “Positions” value was 6-13.
“53 (NLKNVIKAKYGKDAT; epitope) [compound 53]” was tested, and the “Positions” value was 6-15.

What follows are substances tested on IgE antibody present in the serum of a fish-allergic patient (assay: Epitope mapping (1): peptide array of overlapping 15-amino-acid peptides). Details: average of 5 patients / average of 4 non-fish-allergic subjects at least 1.5, Mann-Whitney U test.
Assay type: binding, human
Method: Epitope mapping was carried out using a library of overlapping peptides (length: 15 amino acids) corresponding to the amino acid sequences identified as allergy components of fish and the amino acid sequences of known fish allergy antigens aldolase, β-enolase, and glyceraldehyde-3-phosphate dehydrogenase (Non Patent Literature 2-4). Specifically, the library of overlapping peptides was prepared on the basis of the amino acid sequences of SEQ ID NO: 2 for alpha-actinin-3, SEQ ID NO: 5 for EEF1A2 binding protein-like, SEQ ID NO: 10 for alpha-1,4-glucan phosphorylase, SEQ ID NO: 19 for elongation factor 2, SEQ ID NO: 26 for heat shock cognate 70 kDa protein, SEQ ID NO: 33 for serotransferrin, SEQ ID NO: 43 for myosin binding protein H-like, SEQ ID NO: 56 for desmin (fragment), SEQ ID NO: 61 for capping protein (actin filament) muscle Z-line beta, SEQ ID NO: 70 for myosin heavy chain, fast skeletal muscle-like, SEQ ID NO: 110 for glycogen phosphorylase, muscle form-like, SEQ ID NO: 121 for myosin-binding protein C, fast-type-like, SEQ ID NO: 138 for ATP synthase subunit beta, mitochondrial, SEQ ID NO: 144 for L-lactate dehydrogenase A chain-like, SEQ ID NO: 445 for aldolase, SEQ ID NO: 446 for β-enolase, and SEQ ID NO: 447 for glyceraldehyde-3-phosphate dehydrogenase.
The peptides to be synthesized were shifted by 10 amino acids.
For preparation of peptide arrays, the Intavis CelluSpots™ technique was used. Specifically, the peptide arrays were prepared by the following procedure: (1) synthesizing peptides of interest on amino-modified cellulose disks using an automated chemical synthesis apparatus (Intavis MultiPep RS), (2) dissolving the amino-modified cellulose disks to obtain a cellulose-bound peptide solution, and (3) spotting the cellulose-bound peptides onto coated glass slides. The details of each procedure are as described below.
The presence or absence of binding, to each peptide fragment, of an IgE antibody present in the serum of a fish-allergic patient was measured through antigen-antibody reaction using the peptide arrays. The measurement was carried out according to the following procedure. • (1) The peptides were shaken at room temperature for 1 hour in PBST. • (2) The peptide arrays were shaken at overnight at room temperature in 5% serum/PBST. • (3) The peptide arrays were washed with a PBST solution (a PBS buffer containing 0.1% Tween 20 nonionic surfactant) for 5 minutes (×3). • (4) Anti-human IgE antibody-HRP(1:5,000, PBST) was added thereto, and the peptide arrays were shaken at room temperature for 1 hour. • (5) The peptide arrays were washed with a PBST solution for 5 minutes (×3). • (6) Pierce ECL Plus Western Blotting Substrate (produced by Thermo Fisher Scientific) was added thereto, and the peptide arrays were shaken at room temperature for 5 minutes. • (7) The chemiluminescence of the peptides treated as described above in (1) to • (6) was measured using Amersham Imager 600.
Chemiluminescence intensity in images obtained by the measurement described above in (7) was converted into a numeric value using ImageQuant TL (GE Healthcare). The average value of numeric values determined from images obtained from results about the serum of 5 patients was divided by the average value of numeric values determined from images obtained from results about the serum of 4 non-fish-allergic subjects. It was determined that a peptide having a calculated value (average value of the patient group/average value of the non-fish-allergic subject group) of at least 1.5 and a significant difference of […] in the Mann-Whitney U test was a peptide bound to an IgE antibody in a patient-specific manner.
For “7 (GGYIQAVLDRNLCEN; epitope) [compound 7]”, the “IgE antibody binding in a patient-specific manner” value (shortened to “IgE antibody binding”) was “bind in a patient-specific manner”.
With “9 (AIMDKKSNIRNMSVI; epitope) [compound 9]” the “IgE antibody binding” value was “bind in a patient-specific manner”.
“10 (GKSTLTDSLVSKAGI; epitope) [compound 10]” was tested, and the “IgE antibody binding” value was “bind in a patient-specific manner”.
“48 (NVAKAHGGYSVFAGV; epitope) [compound 48]” was tested, and the “IgE antibody binding” value was “bind in a patient-specific manner”.

— patent US12630594B2, “Allergy antigen and epitope for same” (HOYU CO., LTD., priority 2017, dated 2026)
